Assay results reported in patent publication US8541464B2, “Treatment of atrial fibrillation” (HUYA Biosciences International LLC, priority 2009, dated 2013).

Assays:
[1] = test system: Fast Na; assay: Ion channel profiling in isolated atrial cardiomyocytes; assay type: cell-based; details: Rabbit/atria isolated atrial cardiomyocytes
[2] = target: T1, L-Ca (Oryctolagus cuniculus, UniProt P15381); assay: as above; assay type: cell-based; details: Rabbit/atria isolated atrial cardiomyocytes
T1 construct: in isolated atrial cardiomyocytes; endogenous in cells; host or cells: isolated rabbit atrial cardiomyocytes

[3] = test system: Ito; assay: as above; assay type: cell-based; details: Rabbit/atria isolated atrial cardiomyocytes
[4] = target: T2, IKr (Oryctolagus cuniculus, UniProt Q8WNY2); assay: as above; assay type: cell-based; details: Rabbit/atria isolated atrial cardiomyocytes
T2 construct: in isolated atrial cardiomyocytes; endogenous in cells; host or cells: isolated rabbit atrial cardiomyocytes
T2 sequence (Q8WNY2 whole entry): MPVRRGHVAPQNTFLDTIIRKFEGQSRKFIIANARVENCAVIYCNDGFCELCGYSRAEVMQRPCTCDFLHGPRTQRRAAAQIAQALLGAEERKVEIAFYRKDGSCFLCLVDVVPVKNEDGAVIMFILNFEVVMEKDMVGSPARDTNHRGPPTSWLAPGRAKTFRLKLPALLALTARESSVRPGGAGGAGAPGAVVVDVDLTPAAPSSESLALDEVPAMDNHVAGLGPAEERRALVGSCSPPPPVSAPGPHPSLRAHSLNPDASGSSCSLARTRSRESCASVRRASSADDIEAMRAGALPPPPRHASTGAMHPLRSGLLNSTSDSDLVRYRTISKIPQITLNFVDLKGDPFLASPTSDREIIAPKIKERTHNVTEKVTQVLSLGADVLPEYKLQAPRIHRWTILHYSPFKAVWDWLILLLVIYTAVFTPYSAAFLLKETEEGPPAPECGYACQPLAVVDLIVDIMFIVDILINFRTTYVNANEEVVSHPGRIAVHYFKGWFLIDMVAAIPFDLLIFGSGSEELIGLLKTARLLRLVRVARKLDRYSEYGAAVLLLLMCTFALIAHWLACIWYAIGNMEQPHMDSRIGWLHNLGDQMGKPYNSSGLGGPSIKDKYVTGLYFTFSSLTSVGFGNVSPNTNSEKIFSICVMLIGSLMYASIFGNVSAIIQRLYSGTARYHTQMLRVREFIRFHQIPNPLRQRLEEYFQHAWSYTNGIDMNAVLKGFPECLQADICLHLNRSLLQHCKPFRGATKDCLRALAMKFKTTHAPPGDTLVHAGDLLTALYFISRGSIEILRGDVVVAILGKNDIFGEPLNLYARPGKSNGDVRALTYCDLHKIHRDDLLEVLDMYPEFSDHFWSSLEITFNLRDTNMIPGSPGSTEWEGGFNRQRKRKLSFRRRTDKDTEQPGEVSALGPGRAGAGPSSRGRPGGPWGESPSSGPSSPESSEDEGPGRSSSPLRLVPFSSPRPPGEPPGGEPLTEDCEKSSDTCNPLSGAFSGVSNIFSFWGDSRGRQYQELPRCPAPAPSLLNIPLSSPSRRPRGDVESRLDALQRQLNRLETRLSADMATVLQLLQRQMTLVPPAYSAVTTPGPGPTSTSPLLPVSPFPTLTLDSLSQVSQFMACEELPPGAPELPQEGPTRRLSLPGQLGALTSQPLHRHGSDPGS

[5] = test system: IKach; assay: as above; assay type: cell-based; details: Rabbit/atria isolated atrial cardiomyocytes
[6] = target: T3, Fast Na (Homo sapiens, UniProt Q14524); assay: as above; assay type: cell-based; details: Human/atria isolated atrial cardiomyocytes
T3 construct: in isolated atrial cardiomyocytes; endogenous in cells; host or cells: isolated human atrial cardiomyocytes

[7] = target: T4, Ito (Homo sapiens, UniProt Q9UK17); assay: as above; assay type: cell-based; details: Human/atria isolated atrial cardiomyocytes
T4 construct: in isolated atrial cardiomyocytes; endogenous in cells; host or cells: isolated human atrial cardiomyocytes
T4 sequence (Q9UK17 whole entry): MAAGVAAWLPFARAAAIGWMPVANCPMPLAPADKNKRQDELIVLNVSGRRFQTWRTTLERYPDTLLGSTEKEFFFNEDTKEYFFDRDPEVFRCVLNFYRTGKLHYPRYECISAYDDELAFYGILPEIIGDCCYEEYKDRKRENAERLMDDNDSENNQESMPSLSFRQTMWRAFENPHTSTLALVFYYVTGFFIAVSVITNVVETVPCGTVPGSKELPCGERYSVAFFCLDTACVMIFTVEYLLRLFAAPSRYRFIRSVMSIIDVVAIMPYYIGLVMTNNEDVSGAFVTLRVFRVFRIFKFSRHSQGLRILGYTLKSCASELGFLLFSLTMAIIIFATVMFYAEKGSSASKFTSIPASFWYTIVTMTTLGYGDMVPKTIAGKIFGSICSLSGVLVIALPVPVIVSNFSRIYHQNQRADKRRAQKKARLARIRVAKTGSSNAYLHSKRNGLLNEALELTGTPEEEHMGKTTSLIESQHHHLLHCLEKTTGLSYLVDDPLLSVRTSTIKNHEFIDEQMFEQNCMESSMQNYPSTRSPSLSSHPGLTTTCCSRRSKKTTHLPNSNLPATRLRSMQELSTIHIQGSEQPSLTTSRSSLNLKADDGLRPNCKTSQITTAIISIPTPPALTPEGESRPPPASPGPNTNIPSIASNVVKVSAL
T4 sequence (Q9NS61 whole entry partner): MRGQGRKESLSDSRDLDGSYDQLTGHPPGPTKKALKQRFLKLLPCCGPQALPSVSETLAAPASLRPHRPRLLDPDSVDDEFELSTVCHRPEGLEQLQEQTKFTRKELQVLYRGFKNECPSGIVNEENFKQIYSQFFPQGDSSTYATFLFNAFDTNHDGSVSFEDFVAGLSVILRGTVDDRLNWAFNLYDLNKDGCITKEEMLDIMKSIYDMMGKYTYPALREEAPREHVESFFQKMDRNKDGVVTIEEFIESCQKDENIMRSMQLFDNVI

[8] = target: T5, IKr (Homo sapiens, UniProt Q12809); assay: as above; assay type: cell-based; details: Human/atria isolated atrial cardiomyocytes
T5 construct: in isolated atrial cardiomyocytes; endogenous in cells; host or cells: isolated human atrial cardiomyocytes
T5 sequence (Q12809 whole entry): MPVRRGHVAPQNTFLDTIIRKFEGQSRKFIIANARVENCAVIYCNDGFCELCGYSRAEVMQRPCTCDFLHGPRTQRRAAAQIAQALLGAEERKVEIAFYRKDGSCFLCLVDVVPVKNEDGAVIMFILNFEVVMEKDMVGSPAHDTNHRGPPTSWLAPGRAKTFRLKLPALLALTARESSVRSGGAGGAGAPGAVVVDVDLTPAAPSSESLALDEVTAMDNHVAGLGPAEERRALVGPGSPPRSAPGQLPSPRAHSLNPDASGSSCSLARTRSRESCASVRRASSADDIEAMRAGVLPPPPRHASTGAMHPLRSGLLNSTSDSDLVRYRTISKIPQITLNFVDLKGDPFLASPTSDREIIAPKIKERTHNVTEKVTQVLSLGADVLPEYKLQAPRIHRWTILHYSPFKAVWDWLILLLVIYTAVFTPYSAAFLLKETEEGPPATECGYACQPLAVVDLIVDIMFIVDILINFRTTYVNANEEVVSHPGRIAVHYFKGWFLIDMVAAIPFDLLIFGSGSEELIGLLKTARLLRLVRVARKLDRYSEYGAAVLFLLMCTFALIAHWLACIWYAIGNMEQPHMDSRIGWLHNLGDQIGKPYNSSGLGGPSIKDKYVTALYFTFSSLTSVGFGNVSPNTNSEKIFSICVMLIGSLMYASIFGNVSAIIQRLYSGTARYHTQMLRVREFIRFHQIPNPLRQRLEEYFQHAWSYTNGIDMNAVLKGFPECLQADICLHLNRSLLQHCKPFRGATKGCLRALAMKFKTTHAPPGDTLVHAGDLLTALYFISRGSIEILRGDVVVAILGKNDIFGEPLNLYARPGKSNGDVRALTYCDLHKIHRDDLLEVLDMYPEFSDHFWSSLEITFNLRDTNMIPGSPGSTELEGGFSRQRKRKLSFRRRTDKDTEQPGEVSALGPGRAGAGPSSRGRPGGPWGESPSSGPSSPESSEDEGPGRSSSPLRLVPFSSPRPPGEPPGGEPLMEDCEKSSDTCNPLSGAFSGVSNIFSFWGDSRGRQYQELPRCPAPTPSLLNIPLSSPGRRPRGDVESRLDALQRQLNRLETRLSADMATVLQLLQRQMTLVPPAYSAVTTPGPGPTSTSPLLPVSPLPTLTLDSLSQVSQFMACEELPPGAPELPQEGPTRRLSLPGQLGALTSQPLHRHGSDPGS

[9] = target: T6, Slow Na (Homo sapiens, UniProt Q14524); assay: as above; assay type: cell-based; details: Human/atria isolated atrial cardiomyocytes
T6 construct: in isolated atrial cardiomyocytes; endogenous in cells; host or cells: isolated human atrial cardiomyocytes

[10] = target: T7, IKur (Homo sapiens, UniProt P22460); assay: as above; assay type: cell-based; details: Human/atria isolated atrial cardiomyocytes
T7 construct: in isolated atrial cardiomyocytes; endogenous in cells; host or cells: isolated human atrial cardiomyocytes
T7 sequence (P22460 whole entry): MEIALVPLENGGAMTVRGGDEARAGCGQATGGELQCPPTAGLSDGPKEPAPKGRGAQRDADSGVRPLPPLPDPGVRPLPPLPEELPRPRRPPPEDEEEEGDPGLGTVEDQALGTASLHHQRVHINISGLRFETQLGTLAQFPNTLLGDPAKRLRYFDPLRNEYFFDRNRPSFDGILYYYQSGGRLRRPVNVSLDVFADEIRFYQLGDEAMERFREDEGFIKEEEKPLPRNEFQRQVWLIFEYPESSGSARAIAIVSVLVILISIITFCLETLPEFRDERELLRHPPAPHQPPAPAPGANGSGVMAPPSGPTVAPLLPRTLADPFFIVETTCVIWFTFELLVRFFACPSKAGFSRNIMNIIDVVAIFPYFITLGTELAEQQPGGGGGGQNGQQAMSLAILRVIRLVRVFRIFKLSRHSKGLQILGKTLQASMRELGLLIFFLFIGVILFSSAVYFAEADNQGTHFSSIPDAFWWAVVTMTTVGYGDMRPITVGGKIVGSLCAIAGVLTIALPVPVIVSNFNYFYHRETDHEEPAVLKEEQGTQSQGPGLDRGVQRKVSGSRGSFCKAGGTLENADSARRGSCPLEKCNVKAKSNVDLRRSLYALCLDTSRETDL

[11] = test system: ion channels in human atrial cardiomyocytes; details: sulcardine and its salts, in vitro, reported; cited from earlier work
[12] = test system: post-MI conscious canine; details: sulcardine and salts; cited from earlier work
[13] = test system: rabbit ventricular wedge; details: sulcardine and salts; cited from earlier work
[14] = test system: post-MI canine; details: sulcardine and salts; cited from earlier work

Substance: 4-methoxy-N-(3,5-bis-(1-pyrrolidinyl)-4-hydroxy benzyl)benzene sulfonamide [sulcardine]
- IC50 [1]: 34 µM
- IC50 [2]: 54 µM
- IC50 [3]: 26 µM
- IC50 [4]: 61 µM
- IC50 [5]: 130 µM
- IC50 [6]: 26 µM
- IC50 [7]: 100 µM
- IC50 [8]: 40 µM
- IC50 [9]: 45 µM
- IC50 [10]: > 190 µM
- IC50 [11]: 26 to 100 µM
- pro-arrhythmic activity [12]: lack significant pro-arrhythmic activity
- pro-arrhythmic activity [13]: lack significant pro-arrhythmic activity
- defibrillation threshold [14]: do not increase defibrillation threshold
